From patent US20100285145A1, “GPR 119 MODULATORS” (PFIZER INC, priority 2009, published 2010)

Key:
human GPR119 [1] = molecular target: T1, human GPR119 (Homo sapiens, UniProt Q8TDV5); assay: GPR119 radioligand binding assay ([3H]-Compound A or B, membranes of HEK 293FT cells expressing hGPR119); design: host or cells: HEK293-CRE beta-lactamase; conditions: calculated from IC50 with Cheng-Prusoff; each line a separate determination
T1 sequence (Q8TDV5 1-335): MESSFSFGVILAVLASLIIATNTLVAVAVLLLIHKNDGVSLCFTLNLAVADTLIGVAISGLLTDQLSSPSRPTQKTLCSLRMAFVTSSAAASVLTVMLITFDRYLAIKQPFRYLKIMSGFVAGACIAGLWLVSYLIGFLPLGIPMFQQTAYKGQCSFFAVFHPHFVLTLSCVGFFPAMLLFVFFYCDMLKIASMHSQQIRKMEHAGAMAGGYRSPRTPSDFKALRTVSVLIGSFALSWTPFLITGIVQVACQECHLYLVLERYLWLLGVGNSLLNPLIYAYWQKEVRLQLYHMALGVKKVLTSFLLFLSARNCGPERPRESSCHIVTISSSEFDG
Method: HEK 293FT cells (Invitrogen, Carlsbad, Calif.) were grown in a shake flask in 293Freestyle medium (Invitrogen) supplemented with 50 microg/mL neomycin and 10 mM HEPES (37C, 8% carbon dioxide, shaking). The cells were centrifuged gently (approximately 500×g, 10 minutes) and the pellet resuspended in a mixture of Dulbecco's PBS (minus Mg++/−Ca++) supplemented with 18% fetal bovine serum (Sigma Aldrich) and P1 virus such that the multiplicity of infection (MOI) was 10 and the final cell density was 1.3×10^6/mL (total volume 2.5 liters). The cells were transferred to a 5 liter Wave Bioreactor Wavebag (Wave Technologies, Mass.) and incubated for 4 hours at 27 degrees Celsius (17 rocks/min, 7 degrees platform angle); at the end of the incubation period, an equal volume (2.5 liters) of 293Freestyle medium supplemented with 30 mM sodium butyrate (Sigma Aldrich) was added (final concentration=15 mM), and the cells were grown for 20 hours (37 degrees Celsius, 8% CO2 [0.2 liters/min}, 25 rocks/minute, 7 degrees platform angle). Cells were harvested via centrifugation (3,000×g, 10 minutes), washed once on DPBS (minus Ca++/Mg++), resuspended in 0.25M sucrose, 25 mM HEPES, 0.5 mM EDTA, pH 7.4 and frozen at −80 degrees Celsius.
The frozen cells were thawed on ice and centrifuged at 700×g (1400 rpm) for 10 minutes at 4 degrees Celsius. The cell pellet was resuspended in 20 mL phosphate-buffered saline, and centrifuged at 1400 rpm for 10 minutes. The cell pellet was then resuspended in homogenization buffer (10 mM HEPES (Gibco #15630), pH 7.5, 1 mM EDTA (BioSolutions, #BIO260-15), 1 mM EGTA (Sigma, #E-4378), 0.01 mg/mL benzamidine (Sigma #B 6506), 0.01 mg/mL bacitracin (Sigma #B 0125), 0.005 mg/mL leupeptin (Sigma #L 8511), 0.005 mg/mL aprotinin (Sigma #A 1153)) and incubated on ice for 10 minutes. Cells were then lysed with 15 gentle strokes of a tight-fitting glass Dounce homogenizer. The homogenate was centrifuged at 1000×g (2200 rpm) for 10 minutes at 4 degrees Celsius. The supernatant was transferred into fresh centrifuge tubes on ice. The cell pellet was resuspended in homogenization buffer, and centrifuged again at 1000×g (2200 rpm) for 10 minutes at 4 degrees Celsius after which the supernatant was removed and the pellet resuspended in homogenization buffer. This process was repeated a third time, after which the supernatants were combined, Benzonase (Novagen # 71206) and MgCl2 (Fluka #63020) were added to final concentrations of 1 U/mL and 6 mM, respectively, and incubated on ice for one hour. The solution was then centrifuged at 25,000×g (15000 rpm) for 20 minutes at 4 degrees Celsius, the supernatant was discarded, and the pellet was resuspended in fresh homogenization buffer (minus Benzonase and MgCl2). After repeating the 25,000×g centrifugation step, the final membrane pellet was resuspended in homogenization buffer and frozen at −80 degrees Celsius. The protein concentration was determined using the Pierce BCA protein assay kit (Pierce reagents A #23223 and B #23224).
Test compounds were serially diluted in 100% DMSO (J. T. Baker #922401). 2 microL of each dilution was added to appropriate wells of a 96-well plate (each concentration in triplicate). Unlabeled Compound A (or Compound B), at a final concentration of 10 microM, was used to determine non-specific binding. [^3H]-Compound A (or [^3H]-Compound B) was diluted in binding buffer (50 mM Tris-HCl, pH 7.5, (Sigma #T7443), 10 mM MgCl2 (Fluka 63020), 1 mM EDTA (BioSolutions #BIO260-15), 0.15% bovine serum albumin (Sigma #A7511), 0.01 mg/mL benzamidine (Sigma #B 6506), 0.01 mg/mL bacitracin (Sigma #B 0125), 0.005 mg/mL leupeptin (Sigma #L 8511), 0.005 mg/mL aprotinin (Sigma #A 1153)) to a concentration of 60 nM, and 100 microL added to all wells of 96-well plate (Nalge Nunc # 267245). […]

human GPR119 [2] = molecular target: T1, human GPR119; assay: β-Lactamase reporter functional assay (hGPR119 HEK293-CRE beta-lactamase cells); format: cell-based; design: host or cells: HEK293-CRE beta-lactamase; Emax: dose or concentration left out as unconfirmed
Method: The assay for GPR119 agonists utilizes a cell-based (hGPR119 HEK293-CRE beta-lactamase) reporter construct where agonist activation of human GPR119 is coupled to beta-lactamase production via a cyclic AMP response element (CRE). GPR119 activity is then measured utilizing a FRET-enabled beta-lactamase substrate, CCF4-AM (Live Blazer FRET-B/G Loading kit, Invitrogen cat #K1027). Specifically, hGPR119-HEK-CRE-beta-lactamase cells (Invitrogen 2.5×10^7/mL) were removed from liquid nitrogen storage, and diluted in plating medium (Dulbecco's modified Eagle medium high glucose (DMEM; Gibco Cat # 11995-065), 10% heat inactivated fetal bovine serum (HIFBS; Sigma Cat # F4135), 1×MEM Nonessential amino acids (Gibco Cat # 15630-080), 25 mM HEPES pH 7.0 (Gibco Cat # 15630-080), 200 nM potassium clavulanate (Sigma Cat # P3494). The cell concentration was adjusted using cell plating medium and 50 microL of this cell suspension ([…]) was added into each well of a black, clear bottom, poly-d-lysine coated 384-well plate (Greiner Bio-One cat# 781946) and incubated at 37 degrees Celsius in a humidified environment containing 5% carbon dioxide. After 4 hours the plating medium was removed and replaced with 40 microL of assay medium (Assay medium is plating medium without potassium clavulanate and HIFBS). Varying concentrations of each compound to be tested was then added in a volume of 10 microL (final DMSO ≦0.5%) and the cells were incubated for 16 hours at 37 degrees Celsius in a humidified environment containing 5% carbon dioxide. Plates were removed from the incubator and allowed to equilibrate to room temperature for approximately 15 minutes. 10 microL of 6×CCF4/AM working dye solution (prepared according to instructions in the Live Blazer FRET-B/G Loading kit, Invitrogen cat #K1027) was added per well and incubated at room temperature for 2 hours in the dark. Fluorescence was measured on an EnVision fluorimetric plate reader, excitation 405 nm, emission 460 nm/535 nm. EC50 determinations were made from agonist-response curves analyzed with a curve fitting program using a 4-parameter logistic dose-response equation.

- Ki (human GPR119 [1]): 285 nM
- EC50 (human GPR119 [2]; hGPR119 HEK293-CRE beta-lactamase cells, 16 h incubation, each line a separate determination, read-out: Human B-lactamase Functional EC50): 96.6 nM
- Emax (human GPR119 [2]; percent of maximal activity relative to standard GPR119 agonist at 10 micromolar, read-out: Intrinsic Activity (Human B-lactamase)): 101%
SMILES: COc1c(OC2CCN(C(=O)OC(C)C)CC2)ncnc1N1CCc2cc(S(C)(=O)=O)ccc21 [Example 7, Isopropyl 4-({5-methoxy-6-[5-(methylsulfonyl)-2,3-dihydro-1H-indol-1-yl]pyrimidin-4-yl}oxy)piperidine-1-carboxylate]
